Values quoted from earlier work as cited in PubChem BioAssay AID1259409 (Chemical Carcinogenesis Research Information System (CCRIS), 2018).

Test system: rodent chemically induced tumor inhibition, incidence and multiplicity
Assay: CCRIS tumor inhibitor studies
Details: Carcinogen: AZOXYMETHANE, 25843-45-2, Dose [Inhibitor]: 0, Route [Inhibitor]: ORAL, Species: RAT, Strain/Sex: F344/MALE, Promoter: NONE USED
Excerpt: The CCRIS database contains chemical records with carcinogenicity, mutagenicity, tumor promotion, and tumor inhibition test results. It was developed by the National Cancer Institute (NCI). Data are derived from studies cited in primary journals, current awareness tools, NCI reports, and other sources. Test results have been reviewed by experts in carcinogenesis and mutagenesis.
CCRIS provides historical information from the years 1985 - 2011. It is no longer updated.
This is an archive assay for CCRIS tumor inhibitor studies.

For `CN1C(C(=O)Nc2ccccn2)=C(O)c2ccccc2S1(=O)=O`, the “tumour outcome (control, treated, inhibition, significance)” value (150 PPM IN DIET BEGINNING 1 WK POST CARCINOGEN DOSE FOR DURATION OF STUDY (STUDY DURATION: 56 WK), Target Tissue: Type of Lesion: COLON: ADENOMA, Dose [Carcinogen]: 29.6 MG/KG IN NORMAL SALINE ONCE) is given as 11/30 (37%), 9/30 (30%), 19%, not calculated, the “tumour outcome (control, treated, inhibition, significance)” value (150 PPM IN DIET BEGINNING 1 WK POST CARCINOGEN DOSE FOR DURATION OF STUDY (STUDY DURATION: 56 WK), Target Tissue: Type of Lesion: SMALL INTESTINE: ADENOCARCINOMA, Dose [Carcinogen]: 29.6 MG/KG IN NORMAL SALINE ONCE) is given as 10/30 (33%), 8/30 (27%), 20%, not calculated and the “tumour outcome (control, treated, inhibition, significance)” value (150 PPM IN DIET BEGINNING 1 WK POST CARCINOGEN DOSE FOR DURATION OF STUDY (STUDY DURATION: 56 WK), Target Tissue: Type of Lesion: SMALL INTESTINE: ADENOMA, Dose [Carcinogen]: 29.6 MG/KG IN NORMAL SALINE ONCE) is given as 1/30 (3%), 1/30 (3%), 0%, not calculated. The “tumour outcome (control, treated, inhibition, significance)” value (150 PPM IN DIET FOR 29 WK BEGINNING 1 WK POST CARCINOGEN TREATMENT (STUDY DURATION: 32 WK), Target Tissue: Type of Lesion: COLON: ADENOMA, Dose [Carcinogen]: 15 MG/KG BW 1/WK FOR 2 WK) was 77%, 33%, 57%, p<0.05, the “tumour outcome (control, treated, inhibition, significance)” value (150 PPM IN DIET FOR 29 WK BEGINNING 1 WK POST CARCINOGEN TREATMENT (STUDY DURATION: 32 WK), Target Tissue: Type of Lesion: COLON: CARCINOMA, Dose [Carcinogen]: 15 MG/KG BW 1/WK FOR 2 WK) was 53%, 23%, 57%, p<0.05 and the “tumour outcome (control, treated, inhibition, significance)” value (200 PPM IN DIET BEGINNING 1 WK PRIOR TO CARCINOGEN TREATMENT FOR DURATION OF STUDY (STUDY DURATION: 54 WK), Target Tissue: Type of Lesion: COLON: ADENOCARCINOMA, Dose [Carcinogen]: 15 MG/KG/BW 1/WK FOR 2 WK) was 58%, 33%, 43%, p<0.05. For the same molecule, the “tumour outcome (control, treated, inhibition, significance)” value (200 PPM IN DIET BEGINNING 1 WK PRIOR TO CARCINOGEN TREATMENT FOR DURATION OF STUDY (STUDY DURATION: 54 WK), Target Tissue: Type of Lesion: COLON: ADENOMA., Dose [Carcinogen]: 15 MG/KG/BW 1/WK FOR 2 WK) was 6%, 8%, -33%, not calculated, the “tumour outcome (control, treated, inhibition, significance)” value (200 PPM IN DIET BEGINNING PRIOR TO CARCINOGEN DOSE AND CONTINUING FOR DURATION OF STUDY (STUDY DURATION: 54 WK), Target Tissue: Type of Lesion: COLON: ADENOCARCINOMA, Dose [Carcinogen]: 15 MG/KG 1/WK FOR 2 WK) was 72%, 33%, 54%, p<0.001 and the “tumour outcome (control, treated, inhibition, significance)” value (200 PPM IN DIET BEGINNING PRIOR TO CARCINOGEN DOSE AND CONTINUING FOR DURATION OF STUDY (STUDY DURATION: 54 WK), Target Tissue: Type of Lesion: COLON: ADENOMA, Dose [Carcinogen]: 15 MG/KG 1/WK FOR 2 WK) was 14%, 3%, 79%, not calculated. The “tumour outcome (control, treated, inhibition, significance)” value (200 PPM IN DIET BEGINNING PRIOR TO CARCINOGEN DOSE AND CONTINUING FOR DURATION OF STUDY (STUDY DURATION: 54 WK), Target Tissue: Type of Lesion: SMALL INTESTINE: ADENOCARCINOMA, Dose [Carcinogen]: 15 MG/KG 1/WK FOR 2 WK) was 50%, 17%, 66%, p<0.01, the “tumour outcome (control, treated, inhibition, significance)” value (200 PPM IN DIET BEGINNING PRIOR TO CARCINOGEN DOSE AND CONTINUING FOR DURATION OF STUDY (STUDY DURATION: 54 WK), Target Tissue: Type of Lesion: SMALL INTESTINE: ADENOMA, Dose [Carcinogen]: 15 MG/KG 1/WK FOR 2 WK) was 3%, 0%, 100%, not calculated and the “tumour outcome (control, treated, inhibition, significance)” value (200 PPM IN DIET FOR 56 WK BEGINNING 2 WK PRIOR TO CARCINOGEN TREATMENT (STUDY DURATION: 56 WK), Target Tissue: Type of Lesion: COLON(DISTAL): TUMOR, Dose [Carcinogen]: 15 MG/KG 1/WK FOR 2 WK) was 52%, 35%, 33%, p<0.05. The “tumour outcome (control, treated, inhibition, significance)” value (200 PPM IN DIET FOR 56 WK BEGINNING 2 WK PRIOR TO CARCINOGEN TREATMENT (STUDY DURATION: 56 WK), Target Tissue: Type of Lesion: COLON(PROXIMAL): TUMOR, Dose [Carcinogen]: 15 MG/KG 1/WK FOR 2 WK) was 38%, 15%, 61%, p<0.01, the “tumour outcome (control, treated, inhibition, significance)” value (200 PPM IN DIET FOR 56 WK BEGINNING 2 WK PRIOR TO CARCINOGEN TREATMENT (STUDY DURATION: 56 WK), Target Tissue: Type of Lesion: SMALL INTESTINE(DISTAL): TUMOR, Dose [Carcinogen]: 15 MG/KG 1/WK FOR 2 WK) was 12%, 6%, 50%, not significant and the “tumour outcome (control, treated, inhibition, significance)” value (200 PPM IN DIET FOR 56 WK BEGINNING 2 WK PRIOR TO CARCINOGEN TREATMENT (STUDY DURATION: 56 WK), Target Tissue: Type of Lesion: SMALL INTESTINE(PROXIMAL): TUMOR, Dose [Carcinogen]: 15 MG/KG 1/WK FOR 2 WK) was 33%, 11%, 67%, p<0.05.
